# Laboratory results as given in patent US20110160056A1, “Triazole compounds, the use thereof and preparations containing these compounds” (BASF SE, priority 2008, published 2011).
# Test system: Septoria tritici
# Test: Activity against the Septoria leaf blotch pathogen in the microtiter test
# Format: cell-based
# Conditions: Zymoseptoria tritici, 168 h; 31 ppm active compound; absorption at 405 nm on day 7 after inoculation; relative to active compound-free control (100%)
# Experimental: The stock solution was pipetted into a microtiter plate (MTP) and diluted with water to the stated active compound concentration. An aqueous malt-based spore suspension of Septoria tritici was then added. The plates were placed in a water vapor-saturated chamber at temperatures of 18° C. Using an absorption photometer, the MTPs were measured at 405 nm on day 7 after the inoculation. The measured parameters were compared to the growth of the active compound-free control variant (100%) and the fungus- and active compound-free blank value to determine the relative growth in % of the pathogens in the individual active compounds.
row,Structure (SMILES),relative pathogen growth at 31 ppm
1,CC(C)(C)C(O)C(COc1cccc(C(F)(F)F)c1F)n1cncn1 (stereo not drawn) [I.45],≤ 14%
2,CC(C)(C)C(O)C(COc1ccc(F)c(F)c1F)n1cncn1 (stereo not drawn) [I.40],≤ 14%
3,"CC(C)(C)C(O)C(CCCCOc1cc(Cl)ccc1F)n1cncn1 (stereo not drawn) [I.12b, 8-(5-chloro-2-fluorophenoxy)-2,2-dimethyl-4-[1,2,4]triazol-1-yloctan-3-ol]",≤ 14%
4,Cc1cc(F)ccc1OCC(C(O)C(C)(C)C)n1cncn1 (stereo not drawn) [I.8],≤ 14%

# Test system: Botrytis cinerea
# Test: Activity against the gray mold pathogen in the microtiter test
# Format: cell-based
# Conditions: 168 h, 31 ppm active compound, absorption at 405 nm on day 7 after inoculation, relative to active compound-free control
row,Structure (SMILES),relative pathogen growth at 31 ppm
1,CC(C)(C)C(O)C(COc1cccc(C(F)(F)F)c1F)n1cncn1 (stereo not drawn) [I.45],≤ 13%
2,CC(C)(C)C(O)C(COc1ccc(F)c(F)c1F)n1cncn1 (stereo not drawn) [I.40],≤ 13%
3,"CC(C)(C)C(O)C(CCCCOc1cc(Cl)ccc1F)n1cncn1 (stereo not drawn) [I.12b, 8-(5-chloro-2-fluorophenoxy)-2,2-dimethyl-4-[1,2,4]triazol-1-yloctan-3-ol]",≤ 13%
4,CC(C)(C)C(O)C(COc1ccc(Cl)cc1Br)n1cncn1 (stereo not drawn) [I.32],≤ 13%
5,Cc1cc(F)ccc1OCC(C(O)C(C)(C)C)n1cncn1 (stereo not drawn) [I.8],≤ 13%
